Experimental findings from ChEMBL document CHEMBL5214953, “Structure-activity-relationship study of semi-synthetically modified fusicoccins on their stabilization effect for 14-3-3-phospholigand interactions” (Bioorg Med Chem, 2022) are described below.

Activity calls are given as the source filed them. The rule behind the calls is not given here.

The nature of assay [1]: Stabilization of mode-1 phosphopeptide FAM-KRSHpSVP binding to recombinant 14-3-3 zeta (unknown origin) measured by fluorescence polarization assay. More on the design: species or system Homo sapiens.
Assay [2] in a line: Stabilization of mode-3 phosphopeptide FAM-KRSHpSV binding to recombinant 14-3-3 zeta (unknown origin) measured by fluorescence polarization assay. Set-up: species or system Homo sapiens. On the technique in general: Polarisation of emitted light reports the rotation of a fluorescent probe.
The subject of assay [3] is HEK293. The assay can be described thus: Antiproliferative activity against human HEK293 cells at 5 to 80 uM measured after 48 hrs by WST assay. Type of assay: functional, cell-based. To be noted: dose 5-80 µM.
Assay [4] relates to HL-60. As to the kind of experiment: Antiproliferative activity against human HL-60 cells at 5 to 80 uM measured after 48 hrs by WST assay. The following applies: dose 5-80 µM. Format: functional, cell-based.
Assay [5] relates to HL-60. The assay can be described thus: Antiproliferative activity against human HL-60 cells measured after 48 hrs by WST assay. The following applies: HL-60, 48 h. Type of assay: functional, cell-based.

One may read the Kd as the constant that tells how readily two partners part at equilibrium. Consider `COC[C@H]1CC[C@@H]2/C1=C\[C@@]1(C)CCC([C@H](C)CNC(=O)C3CC3)=C1[C@@H](O[C@H]1O[C@@H]3COC(C)(C)O[C@H]3[C@H](O)[C@H]1O)[C@H](O)[C@@H]2C`, for which the dissociation constant Kd in assay [1] was 0.11 µM; in assay [2], 0.041 µM. In addition, the result in assay [3] was Active.

For `CC(C)C1=C2[C@@H](O[C@H]3O[C@@H]4COC(C)(C)O[C@H]4[C@H](O)[C@H]3O)[C@H](O)[C@H](C)[C@@H]3CC[C@H](COC(F)(F)F)/C3=C/[C@@]2(C)CC1`, the Kd in assay [1] is 0.65 µM.

`COC[C@H]1CC[C@@H]2/C1=C\[C@@]1(C)CCC(C(C)C)=C1[C@@H](O[C@H]1O[C@H](CN)[C@@H](O)[C@H](O)[C@H]1O)[C@H](O)[C@@H]2C`: the values for the equilibrium dissociation constant (Kd) in assay [1] and in assay [2] were 0.06 µM and 0.07 µM, respectively. Besides, the result in assay [4] was Active.

For the molecule `C=CC(C)(C)OC[C@H]1O[C@H](O[C@@H]2C3=C(C(C)C)C[C@H](OCc4ccc(C(=O)OC)cc4)[C@]3(C)/C=C3/[C@@H](COC)CC[C@H]3[C@@H](C)[C@H]2O)[C@H](O)[C@@H](O)[C@@H]1O`, the values for the dissociation constant Kd in assay [1] and in assay [2] were 0.68 µM and 0.6 µM, respectively.

As a reminder, the IC50 is the concentration that inhibits the measured activity by half. A high value points to a need for much substance. In the case of `COC[C@H]1CC[C@@H]2/C1=C\[C@@]1(C)CCC(C(C)C)=C1[C@@H](O[C@H]1O[C@H](CNCc3ccccc3)[C@@H](O)[C@H](O)[C@H]1O)[C@H](O)[C@@H]2C`, the Kd stood at 0.31 µM in assay [1] and 0.25 µM in assay [2]. Also, the IC50 in assay [5] is under 5 µM.

Molecule `COC[C@H]1CC[C@@H]2/C1=C\[C@@]1(C)CCC(C(C)C)=C1[C@@H](O[C@H]1O[C@@H]3CO[C@@H](OCCCN)[C@@H]3[C@H]1O)[C@H](O)[C@@H]2C` showed a concentration for half-maximal inhibition (IC50) in assay [5] of 10 µM.

With `C=CC(C)(C)OC[C@H]1O[C@H](O[C@@H]2C3=C(C(C)C)C[C@H](OCc4ccccc4N=[N+]=[N-])[C@]3(C)/C=C3/[C@@H](COC)CC[C@H]3[C@@H](C)[C@H]2O)[C@H](O)[C@@H](O)[C@@H]1O`, the dissociation constant Kd in assay [1] is 0.68 µM; in assay [2] it was 0.48 µM.

In the case of `C=CC(C)(C)OC[C@H]1O[C@H](O[C@@H]2C3=C(C(C)C)C[C@H](OCc4ccccc4C(=O)OC)[C@]3(C)/C=C3/[C@@H](COC)CC[C@H]3[C@@H](C)[C@H]2O)[C@H](O)[C@@H](O)[C@@H]1O`, the dissociation constant Kd in assay [1] was 0.66 µM; in assay [2], 0.53 µM.

For the molecule `COC[C@H]1CC[C@@H]2/C1=C\[C@@]1(C)CCC(C(C)C)=C1[C@@H](O[C@H]1O[C@@H]3COC(C)(C)O[C@H]3[C@H](O)[C@H]1O)[C@H](O)[C@@H]2C`, the Kd was determined as 0.23 µM in assay [1] and 0.096 µM in assay [2]. Besides, the result in assay [3] was Active.

Turning to `C=CC(C)(C)OC[C@H]1O[C@H](O[C@@H]2C3=C(C(C)C)C[C@H](OCc4ccc(C#N)cc4)[C@]3(C)/C=C3/[C@@H](COC)CC[C@H]3[C@@H](C)[C@H]2O)[C@H](O)[C@@H](O)[C@@H]1O`, the Kd in assay [1] stood at 0.71 µM; in assay [2], 0.38 µM.

As to `C=CC(C)(C)OC[C@H]1O[C@H](O[C@@H]2C3=C(C(C)C)C[C@H](OCc4ccc(C(=O)O)cc4)[C@]3(C)/C=C3/[C@@H](COC)CC[C@H]3[C@@H](C)[C@H]2O)[C@H](O)[C@@H](O)[C@@H]1O`, the Kd in assay [1] is 0.47 µM; in assay [2], 0.39 µM.

As to `C=CC(C)(C)OC[C@H]1O[C@H](O[C@@H]2C3=C(C(C)C)C[C@H](OCc4ccc(N=[N+]=[N-])cc4)[C@]3(C)/C=C3/[C@@H](COC)CC[C@H]3[C@@H](C)[C@H]2O)[C@H](O)[C@@H](O)[C@@H]1O`, the figures for the Kd in assay [1] and in assay [2] were 0.62 µM and 0.32 µM, respectively.

Regarding `CCOC[C@H]1CC[C@@H]2/C1=C\[C@@]1(C)CCC(C(C)C)=C1[C@@H](O[C@H]1O[C@@H]3COC(C)(C)O[C@H]3[C@H](O)[C@H]1O)[C@H](O)[C@@H]2C`, in assay [1], the Kd came out at 0.75 µM.

As for `COC[C@H]1CC[C@@H]2/C1=C\[C@@]1(C)CCC([C@H](C)CNC(C)=O)=C1[C@@H](O[C@H]1O[C@@H]3COC(C)(C)O[C@H]3[C@H](O)[C@H]1O)[C@H](O)[C@@H]2C`, the equilibrium dissociation constant (Kd) stood at 0.11 µM in assay [1] and 0.044 µM in assay [2]. Also, the outcome in assay [3] was Active.

In the case of `CC(C)OC[C@H]1CC[C@@H]2/C1=C\[C@@]1(C)CCC(C(C)C)=C1[C@@H](O[C@H]1O[C@@H]3COC(C)(C)O[C@H]3[C@H](O)[C@H]1O)[C@H](O)[C@@H]2C`, in assay [1], the Kd was found to be 0.68 µM.

With `C=CC(C)(C)OC[C@H]1O[C@H](O[C@@H]2C3=C(C(C)C)C[C@H](O)[C@]3(C)/C=C3/[C@@H](COC)CC[C@H]3[C@@H](C)[C@H]2O)[C@H](O)[C@@H](O)[C@@H]1O`, the Kd in assay [1] was found to be 0.43 µM; in assay [2], 0.077 µM.

Consider `C=CC(C)(C)OC[C@H]1O[C@H](O[C@@H]2C3=C(C(C)C)C[C@H](OCc4ccccc4C(=O)O)[C@]3(C)/C=C3/[C@@H](COC)CC[C@H]3[C@@H](C)[C@H]2O)[C@H](O)[C@@H](O)[C@@H]1O`, for which the Kd was found to be 0.54 µM in assay [1] and 0.48 µM in assay [2].

`COC[C@H]1CC[C@@H]2/C1=C\[C@@]1(C)CCC([C@H](C)CNC(=O)C3CCCCC3)=C1[C@@H](O[C@H]1O[C@@H]3COC(C)(C)O[C@H]3[C@H](O)[C@H]1O)[C@H](O)[C@@H]2C`: the results for the Kd in assay [1] and in assay [2] were 0.13 µM and 0.032 µM, respectively. Further, the result in assay [3] was Active.

As to `C=CC(C)(C)OC[C@H]1O[C@H](O[C@@H]2C3=C([C@H](C)CNC(C)=O)C[C@H](O)[C@]3(C)/C=C3/[C@@H](COC)CC[C@H]3[C@@H](C)[C@H]2O)[C@H](O)[C@@H](O)[C@@H]1O`, the figures for the Kd in assay [1] and in assay [2] were 0.17 µM and 0.038 µM, respectively.

Consider `CCCNC[C@H]1O[C@H](O[C@@H]2C3=C(C(C)C)CC[C@]3(C)/C=C3/[C@@H](COC)CC[C@H]3[C@@H](C)[C@H]2O)[C@H](O)[C@@H](O)[C@@H]1O`, for which the Kd came out at 0.16 µM in assay [1] and 0.12 µM in assay [2]. Further, in assay [4], the result was Active.

As for `COC[C@H]1CC[C@@H]2/C1=C\[C@@]1(C)CCC([C@H](C)CNC(=O)C(F)(F)F)=C1[C@@H](O[C@H]1O[C@@H]3COC(C)(C)O[C@H]3[C@H](O)[C@H]1O)[C@H](O)[C@@H]2C`, the Kd in assay [1] is 0.08 µM; in assay [2], 0.042 µM. For the same molecule, in assay [3], the outcome was Active.
